Consider 3 compounds from ChEMBL document CHEMBL5226281, “Synergistic effects of curcumin and its analogs with other bioactive compounds: A comprehensive review” (Eur J Med Chem, 2021).

By IC50 is commonly meant the concentration that gives 50% inhibition.

Molecules are shown by their SMILES.

In one test the test system is Plasmodium falciparum. Description: Antimalarial activity against Plasmodium falciparum infected in mouse assessed as survival at 0.5 mg/kg, po measured after 40 days relative to control. Format: functional. To be noted: time 40 day.
The next test concerns MCF7. Description: Synergistic antiproliferative activity against human MCF7 cells assessed as inhibition of cell growth. On the set-up: scale not given: the % may be the effect or the level left. The class given is functional.
The test system of a further test is DLD-1. Description: Synergistic antiproliferative activity against human DLD-1 cells assessed as inhibition of cell growth. Format: functional, cell-based.
Another test deals with HCT-116. The test can be described thus: Synergistic antiproliferative activity against human HCT-116 cells assessed as inhibition of cell growth. The class given is functional, cell-based.
A short description of test [1]: Induction of apoptosis in rat AY-27 cells at 10 uM by Annexin V-PE and 7AAD staining based flow cytometry. The class given is functional. In general terms: In flow cytometry, cells or beads pass a laser one at a time.
Test [2] is described as follows: Antiproliferative activity against rat AY-27 cells assessed as inhibition of cell growth incubated for 3 hrs by MTT assay. On the set-up: scale not given: the % may be the effect or the level left. The class given is functional.
For a further test, the system named is Y79. Description: Antiproliferative activity against human Y79 cells assessed as inhibition of cell growth incubated for 48 hrs by MTT assay. Format: functional, cell-based. Conditions: Y79, 48 h. A general note: Tetrazolium dyes change colour on reduction, which living cells bring about.
A short description of test [3]: Antiproliferative activity against human WERI-Rb-1 cells assessed as inhibition of cell growth incubated for 48 hrs by MTT assay. Format: functional, cell-based. Conditions: WERI-Rb-1, 48 h.
Test [4] has as its target Mitogen-activated protein kinase 8 (Homo sapiens) (UniProt P45983). The test can be described thus: Activation of JNK in human CMT12 cells. The class given is cell-based.
The subject of another test is HSC-2. The test can be described thus: Synergistic cytotoxicity against human HSC-2 cells. Format: functional, cell-based.

Chain of Mitogen-activated protein kinase 8 (Homo sapiens) (P45983 whole entry): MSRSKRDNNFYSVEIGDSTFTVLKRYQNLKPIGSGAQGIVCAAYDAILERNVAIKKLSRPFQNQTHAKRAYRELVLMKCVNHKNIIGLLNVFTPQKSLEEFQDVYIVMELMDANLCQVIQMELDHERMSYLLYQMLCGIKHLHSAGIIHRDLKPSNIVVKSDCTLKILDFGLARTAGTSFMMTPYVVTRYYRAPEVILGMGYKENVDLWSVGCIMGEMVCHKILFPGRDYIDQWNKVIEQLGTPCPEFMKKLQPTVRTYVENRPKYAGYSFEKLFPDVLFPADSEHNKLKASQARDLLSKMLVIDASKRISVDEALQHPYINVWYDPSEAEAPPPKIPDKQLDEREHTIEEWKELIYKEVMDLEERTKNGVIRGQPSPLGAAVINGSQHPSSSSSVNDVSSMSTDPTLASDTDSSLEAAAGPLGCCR

As for `C[C@@H]1CC[C@H]2[C@@H](C)C(=O)O[C@@H]3O[C@@]4(C)CC[C@@H]1[C@]32OO4` [ARTEMISININ], in the test with Plasmodium falciparum, the Activity was 100%.

In the case of `COc1cc(/C=C/C(=O)CC(=O)/C=C/c2ccc(O)c(OC)c2)ccc1O` [CURCUMIN], the Activity worked out at 65.92% with MCF7, 36% in test [1], 85% in [2] and 30% in test [4]. Besides, the IC50 with DLD-1 came to 10 µM; with HCT-116 it was 10 µM; with Y79, 30 µM; in test [3], 25 µM; with HSC-2, 3.1 µM.

On to `Oc1ccc(/C=C/c2cc(O)cc(O)c2)cc1` [RESVERATROL], for which the IC50 with HSC-2 was found to be 3.1 µM.
